US20260365641A1, “Aromatic Acetylene Derivative, Preparation Method Therefor, And Use Thereof” (Zhejiang Hisun Pharmaceutical Co., Ltd., priority 2022, published 2026)
Converted amounts (≈) assume the structure as drawn.

Tests used:
[1] = target: T1, recombinant Pseudomonas aeruginosa LpxC (Pseudomonas aeruginosa, UniProt P47205); experiment: Inhibition of enzymatic activity of recombinant Pseudomonas aeruginosa LpxC in vitro; assay type: biochemical; conditions: 5 nM LpxC; substrate UDP-3-O—(R-3-hydroxydecanoyl)-GlcNAc; 25 °C, 120 minutes; fluorescamine readout
T1 construct: purchased Signalway Antibody AP74647-2
T1 sequence (P47205 1-303): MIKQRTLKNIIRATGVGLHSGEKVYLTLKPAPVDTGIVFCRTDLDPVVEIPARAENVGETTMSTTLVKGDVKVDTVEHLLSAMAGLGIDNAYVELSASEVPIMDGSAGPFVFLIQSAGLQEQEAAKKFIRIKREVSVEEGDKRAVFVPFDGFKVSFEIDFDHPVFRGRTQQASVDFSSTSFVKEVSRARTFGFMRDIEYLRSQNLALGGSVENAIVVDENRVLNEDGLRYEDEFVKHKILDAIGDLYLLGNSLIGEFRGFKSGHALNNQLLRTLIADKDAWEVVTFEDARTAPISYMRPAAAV
Protocol: The following method was used to determine degrees of inhibition of the compounds of the present invention on the enzymatic activity of recombinant Pseudomonas aeruginosa LpxC in vitro.
The test process was briefly described as follows: the tested compound was first dissolved in DMSO to prepare a 10 mM storage solution. The reaction was carried out in a 96-well microplate. Firstly, 20 μL of recombinant Pseudomonas aeruginosa LpxC (purchased from Signalway Antibody, article number AP74647-2) was added into the wells, and the final concentrations were 5 nM respectively. 5 μL of the compound to be tested was added, diluted in 4-fold, with 8 concentration points, and the concentration range was 0.61-10000 nM. 5 μL of LpxC substrate UDP-3-O—(R-3-hydroxydecanoyl)-GlcNAc (purchased from Biosynth Carbosynth, article number mu75071) was added, wherein a final concentration of the substrate was […], and the substrate was incubated at 25 °C for 120 minutes. Subsequently, 20 μL of 2.0 mg/mL fluorescamine (purchased from sigma aldrich, article number F9015, wherein a solvent was dimethylformamide/acetonitrile (1:1)) was added to the reaction system, mixed evenly and reacted for 10 minutes. Finally, 50 μL of 200 mM sodium phosphate buffer solution (pH 8.0) was added to stop the reaction, and a microplate reader (BMG) was used for reading. An excitation wavelength and an emission wavelength were 390 nm and 495 nm respectively. Compared with the fluorescence intensity ratio of a control group (0.1% DMSO), the percentage inhibition rates of the compounds at each concentration were calculated, and the IC50 values of the compounds were obtained by performing nonlinear regression analysis with logarithmic value of the compound concentration-inhibition rate by GraphPad Prism 5 software, which can be seen in Table 1.

E. coli ATCC 25922 = experiment: Antibacterial activity, minimum inhibitory concentration (MIC) in vitro, broth dilution; assay type: cell-based; conditions: Escherichia coli, ATCC25922, 5×10^5 cfu/mL, 35 °C, 18-24 hours
Protocol: (§1) The minimum inhibitory concentration (MIC) in vitro was determined according to CLSI's guidelines, and a minimal broth dilution method was used.
(§2) The test process was briefly described as follows: the tested compound was dissolved in DMSO to prepare a storage solution of […], and then prepared into 11 two-fold-diluted 100× high-concentration working liquids (a final concentration of the system was 64 μg/mL to 0.06 μg/mL) by DMSO. Stains (K. pneumoniae ATCC13883, K. pneumoniae ATCC51504 and E. coli ATCC 25922) frozen at −80 °C with glycerin were inoculated to a solid agar culture medium, placed into an incubator for culturing for 18-24 hours at 35 °C to finish the preparation work of the strains. A proper amount of solid plate culture was collected, re-suspended in normal saline, and uniformly mixed. The turbidity of the bacterial suspension was adjusted to a proper turbidity by a turbidity meter, containing about 1×10^8 cfu/mL of bacteria. Then, the turbidity-regulated bacterial suspension was diluted with a test culture medium (type: CAMHIIB, purchased from BD company) to a bacterial concentration of 5×10^5 cfu/mL, thus finishing the preparation of an inoculation solution. 198 μL of the inoculation solution was inoculated into a 96-well plate, and added with 2 μL 100× high concentration working liquid of the compound, then the 96-well plate was placed at 35 °C for culturing for 18-24 hours.

K. pneumoniae ATCC51504 = experiment: as above; assay type: cell-based; conditions: Klebsiella pneumoniae, 5×10^5 cfu/mL, 35 °C, 18-24 hours
Protocol: as §1, §2

SMILES	IC50 [1]	MIC (E. coli ATCC 25922)	MIC (K. pneumoniae ATCC51504)
C[C@H](O)c1nccn1Cc1cc(-c2ccc(C#CC3=CCN(C(=O)CO)CC3)cc2)on1 [Example 63, (S)-2-hydroxy-1-(4-((4-(3-((2-(1-hydroxyethyl)-1H-imidazol-1-yl)methyl)isoxazol-5-yl)phenyl)ethynyl)-3,6-dihydropyridin-1(2H)-yl)ethan-1-one]	23.6 nM	0.5 µg/mL (≈ 1.16 µM)	0.5 µg/mL (≈ 1.16 µM)
C[C@H](O)c1nccn1Cc1cc(-c2ccc(C#CC3=CCN(C(=O)c4cnccn4)CC3)cc2)on1 [Example 38, (S)-(4-((4-(3-((2-(1-hydroxyethyl)-1H-imidazol-1-yl)methyl)isoxazol-5-yl)phenyl)ethynyl)-3,6-dihydropyridin-1(2H)-yl)(pyrazin-2-yl)methanone]	22.7 nM	0.25 µg/mL (≈ 0.52 µM)	0.5 µg/mL (≈ 1.04 µM)
C[C@H](O)c1nccn1Cc1cc(-c2ccc(C#CC3=CCN(C(=O)c4ccnnc4)CC3)cc2)on1 [Example 39, (S)-(4-((4-(3-((2-(1-hydroxyethyl)-1H-imidazol-1-yl)methyl)isoxazol-5-yl)phenyl)ethynyl)-3,6-dihydropyridin-1(2H)-yl)(pyridazin-4-yl)methanone]	21.7 nM	2 µg/mL (≈ 4.16 µM)	1 µg/mL (≈ 2.08 µM)
C[C@H](O)c1nccn1Cc1cc(-c2ccc(C#CC3=CCN(C(=O)C4CCCCO4)CC3)cc2)on1 (stereo partly drawn) [Example 65, (4-((4-(3-((2-((S)-1-hydroxyethyl)-1H-imidazol-1-yl)methyl)isoxazol-5-yl)phenyl)ethynyl)-3,6-dihydropyridin-1(2H)-yl)(tetrahydro-2H-pyran-2-yl)methanone]	15.1 nM	2 µg/mL (≈ 4.11 µM)	0.5 µg/mL (≈ 1.03 µM)
C[C@H](O)c1nccn1Cc1cc(-c2ccc(C#CC3=CCN(C(=O)C4COCCO4)CC3)cc2)on1 (stereo partly drawn) [Example 64, (1,4-dioxan-2-yl)(4-((4-(3-((2-((S)-1-hydroxyethyl)-1H-imidazol-1-yl)methyl)isoxazol-5-yl)phenyl)ethynyl)-3,6-dihydropyridin-1(2H)-yl)methanone]	19.1 nM	1 µg/mL (≈ 2.05 µM)	0.5 µg/mL (≈ 1.02 µM)
C[C@H](O)c1nccn1Cc1cc(-c2ccc(C#CC3=CCN(CCn4cncn4)CC3)cc2)on1 [Example 43, (S)-1-(1-((5-(4-((1-(2-(1H-1,2,4-triazol-1-yl)ethyl)-1,2,3,6-tetrahydropyridin-4-yl)ethynyl)phenyl)isoxazol-3-yl)methyl)-1H-imidazol-2-yl)ethan-1-ol]	25.8 nM	2 µg/mL (≈ 4.26 µM)	1 µg/mL (≈ 2.13 µM)
C[C@H](O)c1nccn1Cc1cc(-c2ccc(C#CC3CC4(C3)CN(C(=O)c3ncn[nH]3)C4)cc2)on1 [Example 55, (S)-(6-((4-(3-((2-(1-hydroxyethyl)-1H-imidazol-1-yl)methyl)isoxazol-5-yl)phenyl)ethynyl)-2-azaspiro[3.3]heptan-2-yl)(1H-1,2,4-triazol-5-yl)methanone]	14.7 nM	2 µg/mL (≈ 4.14 µM)	2 µg/mL (≈ 4.14 µM)
C[C@H](O)c1nccn1Cc1cc(-c2ccc(C#CC3=CCN(CC(N)=O)CC3)cc2)on1 [Example 59, (S)-2-(4-((4-(3-((2-(1-hydroxyethyl)-1H-imidazol-1-yl)methyl)isoxazol-5-yl)phenyl)ethynyl)-3,6-dihydropyridin-1(2H)-yl)acetamide]	23.8 nM	2 µg/mL (≈ 4.64 µM)	0.5 µg/mL (≈ 1.16 µM)
C[C@H](O)c1nccn1Cc1cc(-c2ccc(C#CC3=CCN(C(=O)c4cccnc4)CC3)cc2)on1 [Example 45, (S)-(4-((4-(3-((2-(1-hydroxyethyl)-1H-imidazol-1-yl)methyl)isoxazol-5-yl)phenyl)ethynyl)-3,6-dihydropyridin-1(2H)-yl)(pyridin-3-yl)methanone]	12.3 nM	1 µg/mL (≈ 2.09 µM)	0.5 µg/mL (≈ 1.04 µM)
C[C@H](O)c1nccn1Cc1cc(-c2ccc(C#CC3=CCN(C(=O)C4CCOCC4)CC3)cc2)on1 [Example 66, (S)-(4-((4-(3-((2-(1-hydroxyethyl)-1H-imidazol-1-yl)methyl)isoxazol-5-yl)phenyl)ethynyl)-3,6-dihydropyridin-1(2H)-yl)(tetrahydro-2H-pyran-4-yl)methanone]	18.5 nM	2 µg/mL (≈ 4.11 µM)	1 µg/mL (≈ 2.06 µM)
C[C@H](O)c1nccn1Cc1cc(-c2ccc(C#CC3=CCN(C(=O)C4CC4)CC3)cc2)on1 [Example 36, (S)-cyclopropyl(4-((4-(3-((2-(1-hydroxyethyl)-1H-imidazol-1-yl)methyl)isoxazol-5-yl)phenyl)ethynyl)-3,6-dihydropyridin-1(2H)-yl)methanone]	19 nM	1 µg/mL (≈ 2.26 µM)	0.25 µg/mL (≈ 0.565 µM)
C[C@H](O)c1nccn1Cc1cc(-c2ccc(C#CC3=CCN(C(=O)C4(O)CC4)CC3)cc2)on1 [Example 69, (S)-(1-hydroxycyclopropyl)(4-((4-(3-((2-(1-hydroxyethyl)-1H-imidazol-1-yl)methyl)isoxazol-5-yl)phenyl)ethynyl)-3,6-dihydropyridin-1(2H)-yl)methanone]	20.8 nM	2 µg/mL (≈ 4.36 µM)	2 µg/mL (≈ 4.36 µM)
C[C@H](O)c1nccn1Cc1cc(-c2ccc(C#CC3=CCN(C(=O)N4CCOCC4)CC3)cc2)on1 [Example 60, (S)-(4-((4-(3-((2-(1-hydroxyethyl)-1H-imidazol-1-yl)methyl)isoxazol-5-yl)phenyl)ethynyl)-3,6-dihydropyridin-1(2H)-yl)(morpholino)methanone]	25.3 nM	2 µg/mL (≈ 4.1 µM)	1 µg/mL (≈ 2.05 µM)
C[C@H](O)c1nccn1Cc1cc(-c2ccc(C#CC3=CCN(C(=O)c4cncnc4)CC3)cc2)on1 [Example 40, (S)-(4-((4-(3-((2-(1-hydroxyethyl)-1H-imidazol-1-yl)methyl)isoxazol-5-yl)phenyl)ethynyl)-3,6-dihydropyridin-1(2H)-yl)(pyrimidin-5-yl)methanone]	21.4 nM	2 µg/mL (≈ 4.16 µM)	0.5 µg/mL (≈ 1.04 µM)
C[C@H](O)c1nccn1Cc1cc(-c2ccc(C#CC3=CCN(C(=O)c4ccccn4)CC3)cc2)on1 [Example 61, (S)-(4-((4-(3-((2-(1-hydroxyethyl)-1H-imidazol-1-yl)methyl)isoxazol-5-yl)phenyl)ethynyl)-3,6-dihydropyridin-1(2H)-yl)(pyridin-2-yl)methanone]	11.5 nM	1 µg/mL (≈ 2.09 µM)	0.5 µg/mL (≈ 1.04 µM)
CC(=O)N1CC=C(C#Cc2ccc(-c3cc(Cn4ccnc4[C@H](C)O)no3)cc2)CC1 [Example 62, (S)-1-(4-((4-(3-((2-(1-hydroxyethyl)-1H-imidazol-1-yl)methyl)isoxazol-5-yl)phenyl)ethynyl)-3,6-dihydropyridin-1(2H)-yl)ethan-1-one]	18 nM	0.5 µg/mL (≈ 1.2 µM)	0.5 µg/mL (≈ 1.2 µM)
C[C@H](O)c1nccn1Cc1cc(-c2ccc(C#CC3=CCN(C(N)=O)CC3)cc2)on1 [Example 58, (S)-4-((4-(3-((2-(1-hydroxyethyl)-1H-imidazol-1-yl)methyl)isoxazol-5-yl)phenyl)ethynyl)-3,6-dihydropyridine-1(2H)-carboxamide]	19.2 nM	1 µg/mL (≈ 2.4 µM)	1 µg/mL (≈ 2.4 µM)
C[C@H](O)c1nccn1Cc1cc(-c2ccc(C#CC3=CCN(C(=O)C4[C@H]5CCC[C@@H]45)CC3)cc2)on1 (stereo partly drawn) [Example 35, ((1R,5S)-bicyclo[3.1.0]hexan-6-yl)(4-((4-(3-((2-((S)-1-hydroxyethyl)-1H-imidazol-1-yl)methyl)isoxazol-5-yl)phenyl)ethynyl)-3,6-dihydropyridin-1(2H)-yl)methanone]	–	2 µg/mL (≈ 4.14 µM)	2 µg/mL (≈ 4.14 µM)
